Reference: the NIST ThermoML archive (doi:10.1021/je700224j)

Conditions: Liquid

CCCCn1cc[n+](C)c1.F[B-](F)(F)F [1-butyl-3-methylimidazolium tetrafluoroborate]
Conditions	mass density [kg/m3]
292.94 K, 101.33 kPa	1204.8
293.49 K, 10000 kPa	1208.5
293.49 K, 30000 kPa	1216.5
293.49 K, 40000 kPa	1220.4
293.5 K, 1000 kPa	1204.7
293.5 K, 20000 kPa	1212.6
293.51 K, 5000 kPa	1206.5
302.8 K, 101.33 kPa	1197.5
312.79 K, 101.33 kPa	1190.2
322.3 K, 10000 kPa	1187.7
322.3 K, 40000 kPa	1200.4
322.31 K, 1000 kPa	1183.6
322.31 K, 20000 kPa	1192
322.31 K, 30000 kPa	1196.2
322.33 K, 5000 kPa	1185.4
322.83 K, 101.33 kPa	1182.9
332.53 K, 101.33 kPa	1175.8
342.72 K, 101.33 kPa	1168.6
352.31 K, 10000 kPa	1166.5
352.32 K, 101.33 kPa	1161.7
352.32 K, 5000 kPa	1164.1
352.32 K, 20000 kPa	1171.1
352.32 K, 30000 kPa	1175.7
352.33 K, 1000 kPa	1162.1
352.33 K, 40000 kPa	1180.01
373.31 K, 5000 kPa	1149.4
373.31 K, 20000 kPa	1156.8
373.32 K, 101.33 kPa	1146.9
373.32 K, 10000 kPa	1152
373.33 K, 30000 kPa	1161.6
373.33 K, 40000 kPa	1166.1
373.34 K, 1000 kPa	1147.3
391.27 K, 1000 kPa	1135
391.29 K, 101.33 kPa	1134.5
391.29 K, 10000 kPa	1139.7
391.29 K, 20000 kPa	1144.8
391.29 K, 30000 kPa	1149.7
391.29 K, 40000 kPa	1154.4
391.31 K, 5000 kPa	1137.1
414.92 K, 101.33 kPa	1116.5
414.92 K, 5000 kPa	1119.4
414.92 K, 20000 kPa	1127.4
414.92 K, 40000 kPa	1137.4
414.93 K, 1000 kPa	1117.1
414.93 K, 10000 kPa	1122.1
414.93 K, 30000 kPa	1132.5

CCCCn1cc[n+](C)c1.F[P-](F)(F)(F)(F)F [1-butyl-3-methylimidazolium hexafluorophosphate]
Conditions	mass density [kg/m3]
293.48 K, 1000 kPa	1369.9
293.49 K, 101.33 kPa	1369.8
293.49 K, 20000 kPa	1378.3
293.5 K, 10000 kPa	1374
293.5 K, 40000 kPa	1385.9
293.51 K, 5000 kPa	1371.7
293.51 K, 30000 kPa	1382.2
302.73 K, 101.33 kPa	1362
312.86 K, 101.33 kPa	1353.5
322.28 K, 101.33 kPa	1345.5
322.3 K, 10000 kPa	1350.6
322.3 K, 20000 kPa	1355.2
322.31 K, 1000 kPa	1346.2
322.31 K, 40000 kPa	1363.3
322.33 K, 5000 kPa	1348.2
322.33 K, 30000 kPa	1359.3
332.73 K, 101.33 kPa	1337
342.5 K, 101.33 kPa	1328.7
352.29 K, 101.33 kPa	1320.9
352.3 K, 40000 kPa	1339.8
352.31 K, 1000 kPa	1321.6
352.31 K, 10000 kPa	1326.3
352.31 K, 20000 kPa	1331.2
352.32 K, 5000 kPa	1323.7
352.34 K, 30000 kPa	1335.6
373.3 K, 5000 kPa	1306.6
373.31 K, 10000 kPa	1309.4
373.32 K, 30000 kPa	1319
373.33 K, 101.33 kPa	1303.9
373.33 K, 1000 kPa	1304.4
373.33 K, 40000 kPa	1323.3
373.34 K, 20000 kPa	1314.3
391.27 K, 10000 kPa	1294.7
391.28 K, 30000 kPa	1304.7
391.3 K, 101.33 kPa	1289.1
391.3 K, 5000 kPa	1292
391.31 K, 20000 kPa	1300
391.31 K, 40000 kPa	1309.1
391.32 K, 1000 kPa	1289.5
414.91 K, 10000 kPa	1275.6
414.92 K, 20000 kPa	1281
414.92 K, 40000 kPa	1290.5
414.93 K, 101.33 kPa	1269.7
414.93 K, 5000 kPa	1272.6
414.93 K, 30000 kPa	1285.9
414.94 K, 1000 kPa	1270.2

CCn1cc[n+](C)c1.O=S(=O)([N-]S(=O)(=O)C(F)(F)F)C(F)(F)F
Conditions	mass density [kg/m3]
293.49 K, 101.33 kPa	1522.3
293.49 K, 10000 kPa	1527.8
293.49 K, 20000 kPa	1533.3
293.49 K, 30000 kPa	1538.6
293.49 K, 40000 kPa	1543.6
293.5 K, 1000 kPa	1522.9
293.5 K, 5000 kPa	1525
302.68 K, 101.33 kPa	1513.2
312.64 K, 101.33 kPa	1503.2
322.3 K, 101.33 kPa	1493.2
322.3 K, 10000 kPa	1499.5
322.3 K, 20000 kPa	1505.3
322.3 K, 40000 kPa	1516.3
322.31 K, 5000 kPa	1496.5
322.31 K, 30000 kPa	1510.9
322.32 K, 1000 kPa	1494
332.58 K, 101.33 kPa	1483.2
342.49 K, 101.33 kPa	1473.6
352.3 K, 20000 kPa	1476.5
352.3 K, 40000 kPa	1488.2
352.31 K, 10000 kPa	1470.2
352.32 K, 101.33 kPa	1463.6
352.32 K, 5000 kPa	1467
352.32 K, 30000 kPa	1482.5
352.34 K, 1000 kPa	1464.4
373.3 K, 5000 kPa	1446.5
373.3 K, 30000 kPa	1462.8
373.31 K, 1000 kPa	1443.9
373.32 K, 101.33 kPa	1443.2
373.32 K, 10000 kPa	1449.9
373.33 K, 20000 kPa	1456.5
373.33 K, 40000 kPa	1468.7
391.25 K, 1000 kPa	1426.3
391.28 K, 10000 kPa	1432.6
391.28 K, 30000 kPa	1446
391.29 K, 101.33 kPa	1425.6
391.29 K, 5000 kPa	1429
391.31 K, 20000 kPa	1439.4
391.31 K, 40000 kPa	1452.3
414.92 K, 101.33 kPa	1402.4
414.92 K, 5000 kPa	1406
414.92 K, 10000 kPa	1409.8
414.92 K, 20000 kPa	1417.2
414.92 K, 30000 kPa	1424.2
414.92 K, 40000 kPa	1430.9
414.93 K, 1000 kPa	1403.1

CCOS(=O)(=O)[O-].CCn1cc[n+](C)c1 [1-ethyl-3-methylimidazolium ethyl sulfate]
Conditions	mass density [kg/m3]
292.49 K, 101.33 kPa	1242.1
293.46 K, 10000 kPa	1250.9
293.46 K, 20000 kPa	1259.3
293.47 K, 1000 kPa	1242.9
293.47 K, 5000 kPa	1246.5
293.47 K, 30000 kPa	1267.5
293.48 K, 40000 kPa	1275.4
302.61 K, 101.33 kPa	1236.7
312.47 K, 101.33 kPa	1230.7
322.3 K, 101.33 kPa	1224.4
322.31 K, 1000 kPa	1225.6
322.31 K, 5000 kPa	1229.5
322.31 K, 20000 kPa	1243.3
322.31 K, 40000 kPa	1260.6
322.32 K, 10000 kPa	1234.2
322.33 K, 30000 kPa	1252.1
332.74 K, 101.33 kPa	1218.4
342.42 K, 101.33 kPa	1212.6
352.32 K, 101.33 kPa	1206.3
352.33 K, 1000 kPa	1207.6
352.33 K, 5000 kPa	1211.8
352.33 K, 10000 kPa	1216.9
352.34 K, 20000 kPa	1226.7
352.34 K, 30000 kPa	1236
352.34 K, 40000 kPa	1245.2
373.36 K, 101.33 kPa	1194.1
373.36 K, 1000 kPa	1195
373.36 K, 5000 kPa	1199.4
373.36 K, 10000 kPa	1204.8
373.36 K, 30000 kPa	1225
373.36 K, 40000 kPa	1234.4
373.37 K, 20000 kPa	1215
391.39 K, 101.33 kPa	1183.2
391.39 K, 1000 kPa	1184.2
391.39 K, 5000 kPa	1188.8
391.39 K, 10000 kPa	1194.6
391.39 K, 30000 kPa	1215.4
391.39 K, 40000 kPa	1225.2
391.41 K, 20000 kPa	1205.1
414.94 K, 10000 kPa	1180.8
414.94 K, 20000 kPa	1192.1
414.94 K, 30000 kPa	1202.9
414.95 K, 101.33 kPa	1169.1
414.95 K, 1000 kPa	1170.2
414.95 K, 5000 kPa	1174.9
414.95 K, 40000 kPa	1213.2

CCCC[n+]1ccn(C)c1.O=S(=O)([N-]S(=O)(=O)C(F)(F)F)C(F)(F)F
Conditions	mass density [kg/m3]
293.49 K, 101.33 kPa	1442.2
293.49 K, 1000 kPa	1442.8
293.49 K, 10000 kPa	1449
293.49 K, 30000 kPa	1462.1
293.49 K, 40000 kPa	1468.4
293.5 K, 5000 kPa	1445.6
293.5 K, 20000 kPa	1455.7
303.15 K, 101.33 kPa	1433
312.84 K, 101.33 kPa	1423.9
322.3 K, 10000 kPa	1422.5
322.3 K, 40000 kPa	1443.6
322.31 K, 101.33 kPa	1414.9
322.31 K, 1000 kPa	1415.6
322.31 K, 20000 kPa	1429.8
322.31 K, 30000 kPa	1436.8
322.32 K, 5000 kPa	1418.7
332.78 K, 101.33 kPa	1405.1
342.98 K, 101.33 kPa	1395.5
352.31 K, 5000 kPa	1390.9
352.31 K, 10000 kPa	1395.1
352.32 K, 20000 kPa	1403
352.32 K, 30000 kPa	1410.7
352.32 K, 40000 kPa	1418
352.33 K, 101.33 kPa	1386.6
352.33 K, 1000 kPa	1387.5
373.3 K, 30000 kPa	1392.7
373.31 K, 5000 kPa	1371.6
373.31 K, 20000 kPa	1384.5
373.32 K, 101.33 kPa	1367.1
373.32 K, 1000 kPa	1368
373.32 K, 10000 kPa	1376
373.33 K, 40000 kPa	1400.4
391.27 K, 1000 kPa	1351.3
391.28 K, 101.33 kPa	1350.4
391.28 K, 10000 kPa	1359.8
391.28 K, 20000 kPa	1368.8
391.28 K, 30000 kPa	1377.3
391.28 K, 40000 kPa	1385.4
391.3 K, 5000 kPa	1355.1
414.91 K, 20000 kPa	1348.1
414.91 K, 40000 kPa	1365.8
414.92 K, 101.33 kPa	1328.5
414.92 K, 1000 kPa	1329.5
414.92 K, 5000 kPa	1333.6
414.92 K, 10000 kPa	1338.6
414.92 K, 30000 kPa	1357.2
